Assay results from patent US6051712A, “Piperidine derivatives having renin inhibiting activity” (Hoffmann-La Roche Inc., priority 1995, dated 2000).
Where a name gives a salt, the structure may show the parent alone.

target: T1, human renin (Homo sapiens, UniProt P00797); assay: In vitro test with pure human renin (angiotensin I production from human tetradecapeptide renin substrate, measured by RIA); assay type: biochemical; conditions: not given
T1 sequence (P00797 67-406): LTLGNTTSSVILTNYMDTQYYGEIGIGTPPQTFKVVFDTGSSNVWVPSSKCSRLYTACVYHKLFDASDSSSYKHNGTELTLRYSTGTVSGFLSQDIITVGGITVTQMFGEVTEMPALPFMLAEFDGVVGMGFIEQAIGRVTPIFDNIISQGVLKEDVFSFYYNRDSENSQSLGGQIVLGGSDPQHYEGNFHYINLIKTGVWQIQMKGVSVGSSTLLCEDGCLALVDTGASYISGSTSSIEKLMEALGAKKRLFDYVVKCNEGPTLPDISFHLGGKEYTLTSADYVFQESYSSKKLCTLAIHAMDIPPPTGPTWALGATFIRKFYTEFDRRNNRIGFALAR
Protocol: In vitro test with pure human renin
The test is carried out in Eppendorf test tubes. The incubation mixture consists of (1) 100 μl of human renin in buffer A (0.1M sodium phosphate solution, pH 7.4, containing 0.1% bovine serum albumin, 0.1% sodium azide and 1 mM ethylenediaminetetraacetic acid), sufficient for a renin activity of 2-3 ng of angiotensin l/ml/hr.; (2) 145 μl of buffer A: (3) 30 μl of 10 mM human tetradecapeptide renin substrate (hTD) in 10 mM hydrochloric acid: (4) […] of dimethyl sulphoxide with or without inhibitor and (5) 10 μl of a 0.03 molar solution of hydroxyquinoline sulphate in water.
The samples are incubated for three hours at 37° C. and, respectively, 4° C. in triplicate. 2×100 μl samples per test tube are used in order to measure the production of angiotensin I via RIA (standard radioimmunoassay; clinical assay solid phase kit). […] The production of angiotensin I is determined by the difference between the test at 37° C, and that at 4° C.
The following controls are carried out:
(a) Incubation of hTD samples without renin and without inhibitor at 37° C. and 4° C. The difference between these two values gives the base value of the angiotensin I production.
(b) Incubation of hTD samples with renin, but without inhibitor at 37° C. and 4° C. The difference between these values gives the maximum value of the angiotensin I production.
In each sample the base value of the angiotensin I production is subtracted from the angiotensin I production which is determined. The difference between the maximum value and the base value gives the value of the maximum substrate hydrolysis (=100%) by renin.
The IC50 values are determined from a linear regression curve from a logit-log plot.

Row | IC50 [nM] | Structure (SMILES)
1 | 0.1 | COc1ccccc1COCCCOc1ccc([C@H]2CCNC[C@@H]2OCc2cc(OC)c3ccccc3c2OC)cc1 (relative stereo) [UU]

same assay, conditions: pure human renin, pH 7.4, three hours at 37° C. (less 4° C.), human tetradecapeptide substrate, angiotensin I by RIA; read-out: IC50 values (concentration of the inhibitor at which the enzymatic activity is inhibited by 50%)

Row | IC50 [nM] | Structure (SMILES)
2 | 0.8 | COc1ccccc1COCCCOc1ccc([C@H]2CCNC[C@@H]2OCc2ccc3ccncc3c2)cc1 (racemic) [XX, (3RS,4RS)-3-(isoquinolin-7-ylmethoxy)-4-[4-[3-(2-methoxy-benzyloxy)-propoxy]-phenyl]-piperidine]
3 | 3 | c1ccc(COCCCOc2ccc([C@@H]3[C@@H](OCc4ccc5ccccc5c4)CNC[C@H]3OCCN3CCOCC3)cc2)cc1 (racemic) [Y, 4-{2-[(3RS,4RS,5SR)-4-[4-(3-benzyloxy-propoxy)-phenyl]-3-(naphthalen-2-ylmethoxy)-piperidin-5-yloxy]-ethyl}-morpholine]
4 | 0.5 | COc1ccccc1COCCCOc1ccc([C@H]2CCNC[C@@H]2OCc2ccc3c(c2)NCCC3)cc1 (racemic) [YY, (3RS,4RS)-4-[4-[3-(2-methoxy-benzyloxy)-propoxy]-phenyl]-3-(1,2,3,4-tetrahydro-quinolin-7-ylmethoxy)-piperidine]
5 | 1 | COc1ccc(CO[C@H]2CNC[C@@H](O)[C@@H]2c2ccc(OCCCOCc3ccccc3)cc2)cc1 (racemic) [Z, (3RS,4SR,5SR)-4-[4-(3-benzyloxy-propoxy)-phenyl]-3-(4-methoxy-benzyloxy)-piperidin-5-ol]
6 | 0.03 | COc1ccccc1COCCCOc1ccc([C@H]2[C@H](O)CNC[C@@H]2OCc2cc(OC)c3ccccc3c2OC)cc1 (racemic) [ZZ, (3RS,4SR,5SR)-3-(1,4-dimethoxy-naphthalen-2-ylmethoxy)-4-[4-[3-(2-methoxy-benzyloxy)-propoxy]-phenyl]-piperidin-5-ol]
7 | 26 | O=C(OCCOc1ccc([C@H]2CCNC[C@@H]2OCc2ccc3ccccc3c2)cc1)c1ccccc1Cl (relative stereo) [B, (3RS,4RS)-2-[4-(3-napthalen-2-ylmethoxy-piperidin-4-yl)-phenoxy]-ethyl 2-chloro-benzoate hydrochloride]
8 | 3 | c1ccc(COCCCOc2ccc([C@H]3[C@H](COCCN4CCOCC4)CNC[C@@H]3OCc3ccc4ccccc4c3)cc2)cc1 (relative stereo) [BB]
9 | 2 | COC[C@@H]1CNC[C@H](OCc2ccc3ccccc3c2)[C@H]1c1ccc(OCCCOCc2ccccc2)cc1 (relative stereo) [CC]
10 | 1 | CN1CCN(CCCNC(=O)OC[C@@H]2CNC[C@H](OCc3ccc4ccccc4c3)[C@H]2c2ccc(OCCCOCc3ccccc3)cc2)CC1 (relative stereo) [DD]
11 | 0.4 | c1ccc(COCCCOc2ccc([C@H]3[C@H](CSc4ccncc4)CNC[C@@H]3OCc3ccc4ccccc4c3)cc2)cc1 (relative stereo) [EE]
12 | 0.6 | COc1cc(CO[C@H]2CNCC[C@@H]2c2cnc(OCCCCC3CCCCC3)nc2)c(OC)c2ccccc12 (relative stereo) [FF]
13 | 1 | COc1cc(CO[C@H]2CNCC[C@@H]2c2ccc(OCCCC3CCCCC3)nc2)c(OC)c2ccccc12 (relative stereo) [GG, (3'RS,4'RS)6-(3-Cyclohexyl-propoxy)-3(1,4-dimethoxy-naphthalen-2-ylmethox)-1',2',3',4',5',6hexahydro-[3,4']bipyridine]
14 | 6 | OC[C@@H]1CNC[C@H](OCc2ccc3ccccc3c2)[C@H]1c1ccc(OCCCOCc2ccccc2)cc1 (relative stereo) [HH, (3SR,4RS,5RS)[4[4(3-Benzyloxy-propoxy)-phenyl5-(naphthalen-2-ylmethoxy)-pperidin-3-ylmethanol hydrochloride]
15 | 2 | CN(C)CCN(C)C[C@@H]1CNC[C@H](OCc2ccc3ccccc3c2)[C@H]1c1ccc(OCCCOCc2ccccc2)cc1 (relative stereo) [II]
16 | 2 | CCN(CC)C[C@@H]1CNC[C@H](OCc2ccc3ccccc3c2)[C@H]1c1ccc(OCCCOCc2ccccc2)cc1 (relative stereo) [JJ]
17 | 1 | COc1ccccc1OCCCOc1ccc([C@H]2CCNC[C@@H]2OCc2cc(OC)c3ccccc3c2OC)cc1 (relative stereo) [LL]
18 | 1 | c1ccc(COCCCOc2ccc([C@H]3[C@H](Cn4cncn4)CNC[C@@H]3OCc3ccc4ccccc4c3)cc2)cc1 (relative stereo) [NN, (3RS,4RS,5SR)4-[4(3-Benzyloxy-propoxy)-phenyl3-(naphthalen-2-ylmethoxy)-5[1,2,4]triazol1-ylmethyl-piperidine hydrochloride]
19 | 3 | O=C(Cc1ccc2ccccc2c1)[C@H]1CNCC[C@@H]1c1ccc(OCCCOCc2ccccc2)cc1 (relative stereo) [R, [(3RS,4SR)-4-[4-(3-benzyloxy-propoxy)-phenyl]-piperidin-3-yl]-2-naphthalen-2-yl-ethanone hydrochloride (1:1)]
20 | 0.5 | COc1ccccc1COCCCOc1ccc([C@H]2CCNC[C@@H]2OCc2cc(OC)c3ccccc3c2OC)cn1 (relative stereo) [TT]
21 | 2 | O=C1NCCN1C[C@@H]1CNC[C@H](OCc2ccc3ccccc3c2)[C@H]1c1ccc(OCCCOCc2ccccc2)cc1 (relative stereo) [VV]
22 | 1 | COc1ccc(CO[C@H]2CNC[C@@H](OCc3ccc(OC)cc3)[C@@H]2c2ccc(OCCCOCc3ccccc3)cc2)cc1 [AA, (3R,4s,5S)-4-[4-(3-benzyloxy-propoxy)-phenyl]-3,5-bis-(4-methoxy-benzyloxy)-piperidine]
23 | 2600 | O=C(OC(Cc1ccc2ccccc2c1)[C@H]1CNCC[C@@H]1c1ccc(F)cc1)c1ccccc1 (stereo partly drawn) [K, (SR)- or (RS)-1-[(3RS,4SR)-4-(4-fluoro-phenyl)-piperidin-3-yl]-2-naphthalen-2-yl-ethyl benzoate hydrochloride (1:1)]
24 | 0.5 | COc1cc(CO[C@H]2CNC[C@@H](OCc3cc(OC)c(OC)c(OC)c3)[C@@H]2c2ccc(OCCCOCc3ccccc3)cc2)cc(OC)c1OC [MM, (3R,4s,5S)-4-[4-(3-benzyloxy-propoxy)-phenyl]-3,5-bis-(3,4,5-trimethoxy-benzyloxy)-piperidine]
25 | 270 | Fc1ccc([C@H]2CCNC[C@@H]2OCc2cc(OCc3ccccc3)c3ccccc3c2)cc1 [RR, (3R,4R)3-(4-Benzyloxy-naphthalen-2-ylmethoxy)-4-(4-fluoro-phenyl)-piperidne]
26 | 132000 | Fc1ccc([C@@H]2CCNC[C@H]2OCc2cc(OCc3ccccc3)c3ccccc3c2)cc1 [SS, (3S,4S)3-(4-Benzyloxy-naphthalen-2-ylmethoxy)-4-(4-fluoro-phenyl)-piperidne]
